Experiments:
[1] = target: T1, low affinity rolipram binding form of PDE IV (LPDE IV), human monocyte PDE IV (Homo sapiens, UniProt P27815); assay: PDE IV catalytic activity assay (low affinity form); type: biochemical; settings: 1 μM [3H]cAMP as substrate
T1 construct: made in house; host or cells: yeast
Source text: (§1) Inhibition of PDE IV catalytic activity can thus be used as an index of the potency of compounds at LPDE IV.

[2] = tested on: high affinity rolipram binding form of PDE IV (HPDE IV); assay: [3H]-rolipram binding assay (competition for high affinity site); design: species or system rat; settings: for High/Low Ratio (IC50 high affinity form divided by IC50 low affinity form): HPDE IV IC50 / LPDE IV IC50; for IC50: competition with 1 nM [3H]-rolipram, 1 hour at 30° C.
Procedure: as §1
The assay was run for 1 hour at 30° C. The reaction was terminated and bound ligand was separated from free ligand using a Brandel cell harvester. Competition for the high affinity binding site was assessed under conditions that were identical to those used for measuring low affinity PDE activity, expect that [^3H]-cAMP was not present.

[3] = tested on: TNFα production from isolated human monocytes vs acid secretion in isolated rabbit parietal glands; assay: therapeutic index, in vitro comparison: suppression of TNFα production vs stimulation of acid secretion; type: cell-based
Procedure: To determine acid secretion, the gastric glands in combination with [^14C]-aminopyrine, various concentrations of selective PDE IV inhibitors, and a threshold concentration of histamine (0.3-1.0 μM) were incubated at 37° C. on a horizontal shaker (110 cycles/min) for 20 minutes according to the procedures of Sack and Spenney (1982). Samples were then centrifuged and radioactivity in aliquots of the supernatant fraction and pellet were determined. Aminopyrine ratios were calculated as described by Sack and Spenney (1982). The data were expressed as a percent of a response produced by a maximal concentration of histamine (100 μM). EC50 values were determined by linear interpolation using the maximum response obtained for each compound.
TNFα inhibition was assessed in human peripheral blood monocytes which were purified (Collata) from freshly obtained buffy coats or plasma-phoresis residues of blood from normal human donors. Monocytes were plated at density of 1×10^6 cells/ml medium/well in 24-well multi-dishes. […]
Levels of TNFα were measured using a ELISA (Winston) employing a murine monoclonal anti-human TNFα antibody (see below) as the capture antibody and a polyclonal rabbit anti-human TNFα as the second antibody. […] TNFα levels in samples were calculated from a standard curve generated with recombinant human TNFα produced in E. coli. […]

acid secretion = settings: rats, particularly in combination with an activator of adenylate cyclase such as histamine; cited from earlier work
[4] = clinical studies; cited from earlier work
[5] = tested on: [3H]-rolipram binding sites in rat brain homogenates; assay: high affinity [3H]-rolipram binding sites in rat brain homogenates (Schneider 1986); settings: Kd vs Ki
Source text: In 1986, Schneider and colleagues described the presence and characteristics of high affinity, stereoselective [^3H]-rolipram binding sites in rat brain homogenates, Although it was assumed that these binding sites represented the catalytic site of the rat brain “noncalmodulin-dependent, cAMP phosphodiesterase” (i.e. PDE IV), a striking anomaly was apparent in the data.

T1 sequence (P27815 1-686 isoform P27815-3): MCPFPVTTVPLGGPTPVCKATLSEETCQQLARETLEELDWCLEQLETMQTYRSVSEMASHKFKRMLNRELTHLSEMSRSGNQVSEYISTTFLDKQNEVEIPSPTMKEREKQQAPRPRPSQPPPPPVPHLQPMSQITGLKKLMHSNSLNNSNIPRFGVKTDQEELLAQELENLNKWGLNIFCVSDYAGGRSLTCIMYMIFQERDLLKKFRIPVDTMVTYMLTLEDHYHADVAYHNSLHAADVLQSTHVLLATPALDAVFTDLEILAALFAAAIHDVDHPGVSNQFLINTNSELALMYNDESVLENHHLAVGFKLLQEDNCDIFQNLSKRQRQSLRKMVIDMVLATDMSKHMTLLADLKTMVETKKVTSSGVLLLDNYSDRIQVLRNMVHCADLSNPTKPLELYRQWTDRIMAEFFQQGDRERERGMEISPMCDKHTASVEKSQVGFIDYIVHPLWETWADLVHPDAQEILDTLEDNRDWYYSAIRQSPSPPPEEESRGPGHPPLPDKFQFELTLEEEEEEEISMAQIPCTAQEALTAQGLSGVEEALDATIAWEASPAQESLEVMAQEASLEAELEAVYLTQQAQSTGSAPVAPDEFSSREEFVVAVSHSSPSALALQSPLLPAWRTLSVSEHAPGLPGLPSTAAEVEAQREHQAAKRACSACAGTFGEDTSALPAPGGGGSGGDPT

| Structure (SMILES) | IC50 [1] | High/Low Ratio (IC50 high affinity form divided by IC50 low affinity form) [2] | IC50 [2] | improvement in therapeutic index in comparison with R-rolipram [3] | effect on acid secretion (acid secretion) | side effects [4] | difference in affinity for the binding site versus effect on catalytic activity [5] |
| --- | --- | --- | --- | --- | --- | --- | --- |
| COc1ccc([C@@H]2CC[C@H](C(=O)O)C2)cc1OC1CCCC1 (relative stereo) [cis-[3-(3-cyclopentyloxy-4-methoxyphenyl)cyclopentane-1-carboxylate]] | 2700 nM |  |  |  |  |  |  |
| COc1ccc(C2CN(Cc3ccc(N)cc3)C(=O)N2)cc1OC1CCCC1 (stereo not drawn) [1-(4-aminobenzyl)-4-(3-cyclopentyloxy-4-methoxyphenyl)-2-imidazolidinone] | 1400 nM | 0.07 | 10 nM |  |  |  |  |
| COc1ccc(C2CCC(c3nnn[nH]3)C2)cc1OC1CCCC1 (stereo not drawn) [1-(5-tetrazole)-3-(3-cyclopentyloxy-4-methoxyphenyl)cyclopentane] | 1100 nM | 0.0018 | 2 nM |  |  |  |  |
| COC(=O)C1CC(C#N)(c2ccc(OC(F)F)c(OCC3CC3)c2)CCC1=O (stereo not drawn) [2-carbomethoxy-4-cyano-4-(3-cyclopropylmethoxy-4-difluoromethoxyphenyl)cyclohexan-1-one] | 140 nM | 3.571 | 500 nM | 100 fold |  |  |  |
| COc1ccc(C2CCN(Cc3ccc(NC(=NC#N)SC)cc3)C2=O)cc1OC1CCCC1 (stereo not drawn) [3-(cyclopentyloxy-4-methoxyphenyl)-1-(4-N′-[N2-cyano-S-methyl-isothioureido]benzyl)-2-pyrrolidone] | 100 nM | 0.30 | 30 nM |  |  |  |  |
| CCOC(=O)C=C1C[C@H](c2ccc(OC)c(OC3CCCC3)c2)CN1 [(R)-(+)-ethyl [4-(3-cyclopentyloxy-4-methoxyphenyl)pyrrolidine-2-ylidene]acetate] | 140 nM | 2.143 | 300 nM |  |  |  |  |
| CCOC(=O)C=C1C[C@@H](c2ccc(OC)c(OC3CCCC3)c2)CN1 [(S)-(-)-ethyl[4-(3-cyclopentyloxy-4-methoxphenyl)pyrrolidine-2-ylidene]acetate] | 460 nM | .98 | 450 nM |  |  |  |  |
| CC(C)Cn1c(=O)n(C)c(=O)c2[nH]cnc21 [IBMX, reference compound] | 29100 nM | 0.698 | 20300 nM |  |  |  |  |
| COc1ccc(CCNC(=O)C(N)=O)cc1OC1CCCC1 [N-[2-(3-cyclopentyloxy-4-methoxyphenyl)ethyl]oxamide] | 890 nM | 0.013 | 12 nM |  |  |  |  |
| CCCCOc1cc(CC2CNC(=O)N2)ccc1OC (stereo not drawn) [Ro 20-1724] |  |  |  |  | enhance acid secretion in rats |  |  |
| N#CC1(c2ccc(OC(F)F)c(OCC3CC3)c2)CCC(O)CC1 (stereo not drawn) [cis-[4-cyano-4-(3-cyclopropylmethoxy-4-difluoromethoxyphenyl)cyclohexan-1-ol]] | 21 nM |  | 40 nM | 100 fold |  |  |  |
| CCCCn1c(=O)c2c(ncn2CC(C)=O)n(CCCC)c1=O [denbufylline, 7-acetonyl,1,3-dibutylxanthine, reference compound] |  |  | 50 nM |  |  | may include pyrosis, nausea and emesis |  |
| OCCN(CCO)c1nc(N2CCCCC2)c2nc(N(CCO)CCO)nc(N3CCCCC3)c2n1 [dipyridamole, 2,2′,2″,2′″-[(4,8-dipiperidinopyrimido[5,4-d]pyrimidine-2-6-diyl)dinitrilo]tetraethanol, reference compound] | 5200 nM | 6.25 | 32500 nM |  |  |  |  |
| COc1ccc(C2CNC(=O)C2)cc1OC1CCCC1 (stereo not drawn) [rolipram] |  |  |  |  | enhance acid secretion in rats | has psychotropic activity and produces gastrointestinal effects, e.g., pyrosis, nausea and emesis | 1000 fold |
| COc1cc2c(cc1OC)-c1c/c(=N\c3c(C)cc(C)cc3C)n(C)c(=O)n1CC2 [trequinsin, 2,3,6,7-tetrahydro-2-(mesitylimino)-9,10 dimethoxy-3-methyl-4H-primido[6,1-a]isoquinoline-4-one, reference compound] |  |  | 5000 nM |  |  |  |  |

From patent publication US20020115111A1, “Compounds” (SmithKline Beecham Corporation, priority 1994, published 2002)
